Consider five sequences from patent US10576145B2, “CD200 inhibitors and methods of use thereof” (REGENTS OF THE UNIVERSITY OF MINNESOTA, priority 2014, dated 2020).

One assay concerns EMT6 tumor bearing mice. The assay is described as follows: EMT6 breast carcinoma model: tumor lysate + CpG +/- competitive inhibitor, survival. It is filed as in vivo, BALB/c mice. On the procedure: FIG. 6. Percent survival of mice inoculated with 1×10^6 EMT6 cells. To determine if our competitive inhibitors worked in other tumor models, mice were inoculated in the fat pad with 1×10^6 EMT6 cells. Specifically, mice were vaccinated with 65 μg of EMT6 tumor lysates+50 μg of adjuvant CpG and 50 μg of different completive inhibitors (6059, 4004, 4013 and 6061) and monitored for survival. Saline and tumor lysate+adjuvant CpG were used as controls.
FIGS. 19A-19B. Select CD200 antagonists enhance survival. (FIG. 19A) EMT6 tumor bearing mice were vaccinated with tumor lysate, CpG+/−CD200 antagonist 4004, 4013 or 6059. […] Log-rank analysis was used for survival.
(§1) Tumors were implanted into female C57BL/6 mice (6-8 wk old) (Jackson Laboratory) and maintained in a pathogen-free facility according to the guidelines of the University of Minnesota Animal Care and Use Committee. The GL261 orthotopic transplant model was established in C57BL/6 (B6) mice by inoculation with 15,000 GL261-Luc^+ cells in 1 μl of saline. Tumors were implanted stereotactically into the right striatum; coordinates were 2.5 mm lateral, 0.5 mm anterior of bregma, and 3 mm deep from the cortical surface of the brain^19. Tumor burden was determined by bioluminescent imaging. Light emitted from the tumors was quantified using Living Image software (Xenogen) and expressed as photons per second per centimeter squared per steradian (p/s/cm^2/sr). GL261 cells for tumor lysate vaccines were cultured in neural stem cell media consisting of DMEM/F12 (1:1) with L-glutamine, sodium bicarbonate, penicillin/streptomycin (100 U/ml), B27 and N2 supplements (Life Technologies), and 0.1 mg/ml Normocin (Invivogen). Cultures were maintained at 5% 02 and supplemented with 20 ng/ml EGF and FGF semiweekly (R&D Systems, Minneapolis, Minn.). […] Mice were euthanized when tumors reached 1000 mm^3. […] Tumor cells used to establish both models were cultured in DMEM containing 10% FBS, penicillin/streptomycin (100 U/ml), and 0.1 mg/ml Normocin (Invivogen) in atmospheric oxygen.

For the next assay, the system named is GL261 tumor bearing mice. The assay is described as follows: GL261 glioma model: tumor lysate vaccine +/- antagonist, tumor growth by imaging and survival. It is filed as in vivo, C57BL/6 mice. Conditions: for Tumor growth: GL261, tumor lysate vaccine + antagonist vs tumor lysate alone or saline, weekly imaging; for Survival: GL261 glioma model, tumor lysate vaccine + antagonist. On the procedure: FIGS. 4A-4C. FIG. 4A) GL261 tumor bearing mice were inoculated with 50 μg of antagonist 6059 one day prior to vaccination with tumor lysate (65 μg)+/−the antagonist 6059 (50 μg). FIG. 4B) Mice were imaged weekly for tumor growth. The following groups were studied: saline (1), tumor lysate (2), and tumor lysate+6059 (3). FIG. 4C) Percent survival post inoculation for saline (1), tumor lysate (2), and tumor lysate+6059 (3) groups.
FIGS. 5A-5B. FIG. 5A) GL261 tumor bearing mice were inoculated with 10 μg of 6059 on day 2 into the tumor site then with 50 μg of antagonist 6059 one day prior to vaccination with tumor lysate (65 μg)+the antagonist 6059 (50 μg). FIG. 5B) Mice were imaged weekly for tumor growth. The following groups were studied: saline (1), tumor lysate+6059 (2), and CNS+tumor lysate+6059 (3) groups.
Whether vaccination with CD200R antagonists could enhance the survival of tumor-bearing mice was also studied. […] GL261 tumor bearing mice were vaccinated weekly with saline, tumor lysates (TL) or tumor lysates+an antagonist (4004, 4013, 6059).
Tumor-bearing mice were inoculated in the brain with 10 μg of the inhibitor 6059 at the same coordinates at which the tumor was injected two days previously. This was followed by weekly injections of tumor lysate+inhibitor (FIGS. 5A-5B).
as §1
Tumor lysates were prepared by dissociating tumor cells with non-enzymatic dissociation solution (Sigma). Cells were then washed 3 times with PBS, re-suspended in 500 μL PBS, and frozen overnight at −80° C. Cells were then lysed by five freeze/thaw cycles of freezing in liquid nitrogen and thawing in a 55° C. water bath. Cell debris was pelleted by centrifugation at 14,000 RCF, and the protein concentration of the supernatant was determined using a Bradford assay. Lysates were stored at −80° C. until use. Each vaccine was prepared on the day of vaccination and consisted of 65 μg of protein tumor lysate and 10 μg Poly:ICLC (Oncovir, Inc.), with or without 50 μg of the 6059 peptide antagonist, in a final volume of 100 μL injected intradermally in the back of the neck. For survival studies, vaccines were administered weekly starting three days post-tumor implantation for a total of 6 doses. In T cell priming experiments, CD8 T-cell priming experiments, animals were vaccinated intradermally on four consecutive days with 100 μg Ovalbumin (OVA) and 10 μg Poly:ICLC, and once more on day eleven^19.

The subject of another assay is splenocytes. The assay is described as follows: Splenocytes pulsed with OVA + antagonist, OT-1 T cells added, cytokine production by flow cytometric bead array. It is filed as cell-based. The following applies: pulsed 24 hours, 48 hours with OT-1 T cells. On the procedure: FIGS. 11A-11B. Splenocytes were pulsed with OVA+an inhibitor peptide and incubated for 24 h. Following incubation, cells were washed, purified OT1 were added to wells and incubated for an additional 48 hrs then analyzed for FIG. 11A) TNFa and IL-6 production; and FIG. 11B) IL-2 and IL-17 production. Error bars indicate +/−SEM (n=4/group; *P<0.05; ** P<0.01).
Whether the different antagonists described by Gorczynski et. al. (J Surg Res 2008; 145(1): 87-96) could modulate or reverse the suppressive effects of the tumor microenvironment was also investigated. It was concluded that different antagonists either act through different CD200R isoforms or have different biological effects on the same receptor. These conclusions were supported by experiments where splenocytes were pulsed with OVA+selected CD200R antagonists (6061, 6069, 4004, 4006, 4013) for 24 hours. The splenocytes were then washed and cultured for 48 hours with the addition of OT-1 T cells. The cultures were then assessed for cytokine production using a flow cytometric bead array. […] These experiments support the hypothesis that exosomes express the CD200 protein thereby inhibiting the ability to prime a T cell response in the draining lymph nodes of glioma bearing mice. Other antagonists were similarly evaluated.
Background: Flow cytometry measures light scatter and fluorescence of single cells or particles in a stream.

The next assay relates to mice. The assay is described as follows: MDSC expansion in blood of mice vaccinated with tumor lysate + CpG +/- inhibitor. The following applies: tumor lysate+CpG+inhibitor vs tumor lysate+CpG, listed as P1A12. It is filed as in vivo. On the procedure: FIG. 23. […] Mice were vaccinated as described in FIG. 4 with peptide inhibitor P1A12. Blood from mice vaccinated with tumor lysate+CpG or tumor lysate+CpG+inhibitor were analyzed for MDSC expansion.
(§2) Mice were vaccinated as described in FIGS. 4A-4C with peptide inhibitor P1A12. Blood from mice vaccinated with tumor lysate+CpG or tumor lysate+CpG+inhibitor were analyzed for MDSC expansion (FIG. 23). […] CD11b cells isolated for wild type or CD200 receptor knock out mice were pulsed with OVA+Poly:ICLC+/−P1A12 inhibitor, and scrambled inhibitor was used as a control (FIG. 24). Cells were washed and OT-I Cells were added. Supernatants were analyzed for IFN gamma following 48 hour incubation.

Another assay relates to CD200 receptor. The assay is described as follows: CD11b cells of wild type or CD200 receptor knock out mice pulsed with OVA+Poly:ICLC +/- P1A12, OT-I cells added, IFN gamma. It counts as cell-based. Conditions: wild type vs CD200 receptor knock out CD11b cells, 48 hour incubation; listed as P1A12. On the procedure:
FIG. 24. […] CD11b cells isolated for wild type or CD200 receptor knock out mice were pulsed with OVA+Poly:ICLC+/−P1A12 inhibitor. Scrambled inhibitor was use as a control. Cells were washed and OT-I Cells were added. A. Supernatants were analyzed for IFN gamma following 48 hour incubation.
as §2

Entries after “also recorded” stand apart in the source; their conditions may differ.

As to RCSLKTSQE [Antagonist 6061], the Survival result in the assay on EMT6 tumor bearing mice is “significantly extended survival benefit”.

Consider TASLRCSLKTSQE [Antagonist 4004], for which the Tumor growth entry in the assay with GL261 tumor bearing mice was “tumors grow faster in mice vaccinated with saline or tumor lysate alone compared to mice vaccinated with tumor lysate plus an antagonist”. Also, the Survival entry in the assay with EMT6 tumor bearing mice is on record as “results translated to a breast carcinoma (EMT6) model; also recorded: enhanced survival benefit; also recorded: significantly extended survival benefit”. The “Cytokine profile (TNFa, IL-6, IL-2, IL-17)” value in the assay on splenocytes was “different cytokine profiles”.

As to LFNTFGSQKVSGT [Antagonist 4013], the Tumor growth entry in the assay with GL261 tumor bearing mice is given as “tumors grow faster in mice vaccinated with saline or tumor lysate alone compared to mice vaccinated with tumor lysate plus an antagonist”. In addition, the Survival result in the assay with EMT6 tumor bearing mice was “results translated to a breast carcinoma (EMT6) model; also recorded: enhanced survival benefit; also recorded: significantly extended survival benefit”.

Consider SQKVSGTACLTLY [Antagonist 4006], for which the “Cytokine profile (TNFa, IL-6, IL-2, IL-17)” value with splenocytes is “different cytokine profiles”.

Turning to VTWQKKKAVSPANM [Antagonist C-A12], the Survival entry was “even greater survival” in the assay with GL261 tumor bearing mice and “enhances survival” in the assay on GL261 tumor bearing mice (listed as P1-A12). Also, the “MDSC expansion in vivo” value in the assay with mice is “inhibits MDSC expansion in vivo”. In the assay with CD200 receptor, the “Action on the CD200 receptor (IFN gamma in supernatants)” value is “acts as an agonist for the CD200 receptor”.
